# Results taken from US20090305963A1, “Lipocalin 2 for the Treatment, Prevention, and Management of Cancer Metastasis, Angiogenesis, and Fibrosis” (priority 2005, published 2009).
# Where a name gives a salt, the structure may show the parent alone. Where a SMILES comes first, the peptide text is derived from it. The star is where a group is joined. Cbz = O=C(OCc1ccccc1)*
# B1: Lipo:Sid:Fe: recombinant mouse lipocalin 2 mixed with iron-loaded bacterial siderophore enterochelin (protein, UniProt P11672 21-200, looked up)
# Neutrophil …: QDSTQNLIPAPSLLTVPLQPDFRSDQFRGRWYVVGLAGNAVQKKTEGSFTMYSTIYELQENNSYNVTSILVRDQDQGCRYWIRTFVPSSRAGQFTLGNMHRYPQVQSYNVQVATTDYNQFAMVFFRKTSENKQYFKITLYGRTKELSPELKERFTRFAKSLGLKDDNIIFSVPTDQCIDN
# modifications: iron-loaded enterochelin siderophore complex
# notes: recombinant mouse lipocalin 2 mixed with iron-loaded bacterial siderophore enterochelin
# B2: Lipo:Sid: recombinant mouse lipocalin 2 mixed with iron-unloaded bacterial siderophore enterochelin (protein, UniProt P11672 21-200, looked up)
# Neutrophil …: B1 Neutrophil …
# modifications: iron-free enterochelin siderophore
# notes: recombinant mouse lipocalin 2 mixed with iron-unloaded bacterial siderophore enterochelin
# B3: Lipo: recombinant mouse lipocalin 2 protein expressed in E. coli BL21, without siderophore (protein, UniProt P11672 21-200, looked up)
# Neutrophil …: B1 Neutrophil …
# Tests used:
# [1] = system: E-cadherin; assay: EMT phenotype, E-cadherin and vimentin protein in 4T1 clones (microscopy, western blot); assay type: cell-based, mouse; conditions: for rank order of effect on R cell epithelial morphology and E-cadherin expression: R cells, 15 or 50 μg/ml, dose dependent
# From the text: (§1) Cells were stained as described previously (Mammoto et al., Cancer Lett. 184:165-170, 2002) and images acquired with a Delta Vision system (Applied Precision, Issaquah, Wash.) equipped with an Axiovert 100 microscope (Carl Zeiss MicroImaging Inc., Shelton, Conn.) and a Photometrics 300 series scientific-grade cooled CCD camera, reading 12-bit images, and using the 63/1.4 NA plan-Neofluar objective. For immunoprecipitation and immunoblotting, tissues were weighed, diced, soaked in ice cold RIPA buffer with 1 mM phenylmethylsulfonyl fluoride (PMSF), 1 μg/ml Aprotinin, 1 mM Na3VO4, 1 nM NaF, homogenized on ice, centrifuged at 10,000 g for 10 minutes at 4° C., and the supernatant fluid collected as total cell lysate. Cultured cells were washed, scraped, and solubilized in a lysis buffer containing 20 mM Tris-HCl pH 7.5, 150 mM NaCl, 0.5% Triton X-100, 1% aprotinin, and 1 mM PMSF. After 20 minutes on ice, the cells were pelleted by centrifugation and the supernatants were used as a cell lysate. Cell lysates or immunoprecipitated cell lysates were separated by PAGE (NuPAGE® gels; Invitrogen, Carlsbad, Calif.), followed by electroblotting onto a polyvinylidenedifluoride membrane (PVDF). Protein bands were detected using SuperSignal® West Pico Chemiluminescent Substrate (Pierce Chemical Co., Rockford, Ill.) (Hanai et al., J. Cell. Biol. 158:529-539, 2002).
# To assess the effects of lipocalin 2 on ras-mediated transformation, we chose a syngeneic spontaneously metastasizing murine breast cancer model (4T1 cell line) and accelerated its metastatic potential by introduction of constitutively active mouse H-ras mutant A12 using retrovirus. […] We generated stable clones of 4T1-ras cells expressing lipocalin 2 (RL) by transfection of a lipocalin 2 expression plasmid (lipocalin 2-pcDNA3.1). […] (FIG. 2A, lower panel, and FIG. 2B). […] Expression of E-cadherin in RL cells was dependent on the dose of lipocalin 2-pcDNA3.1 expression vector (transiently introduced in a population of R cells), on a conditioned medium containing lipocalin 2 (FIGS. 2D-E), as well as on recombinant lipocalin 2 protein. R cells shown in FIG. 2D were seeded in a 6-well plate and transfected with lipocalin 2 by FuGene 6 at 40% confluency. After 48 hours, cells were trypsinized, respread on 6-well plate, and transfected again in the same conditions. After 72 hours, cells were harvested and analyzed by western blotting. EV cells in FIG. 2E were seeded in a 6-well plate with 1 ml/well containing 10% FCS with DMEM and 2 ml of CM was added at 10% confluency. After 72 hours, cells were harvested and analyzed by western blotting. CM is a mixture of media from 293T cells transfected with lipocalin 2 and from 293 cells transfected with empty vector (pcDNA3.1).
# [2] = system: VEGF; assay: Measurement of VEGF levels by ELISA in conditioned media of 4T1 cells; assay type: cell-based, mouse; conditions: R cells; 2 days of incubation; dose dependent
# Protocol: Conditioned media of 4T1 cells were collected after 2 days of incubation. Murine VEGF levels were determined in duplicate using a commercially available sandwich ELISA kit (R&D Systems, Minneapolis, Minn.), with a affinity purified polyclonal antibody specific for mouse VEGF has been pre-coated onto a microplate. Results were compared with a standard curve of mouse VEGF with a lower detection limit of 7 pg/mL. A model 680 microplate-reader (Bio-Rad Laboratories, CA) was used to measure light intensity correlating with VEGF binding.
# [3] = system: E-cadherin; assay: E-cadherin phosphorylation (immunoprecipitation and western blot); assay type: cell-based, mouse; conditions: R cells vs RL cells or R cells with inhibitor
# From the text: as §1
# [4] = system: E-cadherin; assay: Induction of E-cadherin in embryonic mesenchyme; assay type: cell-based, rat; conditions: enterochelin siderophore complex with gallium instead of iron
# [5] = system: raf, MEK, and ERK1/2; assay: Western blots with phosphospecific antibodies for ras-MAPK signaling molecules; assay type: cell-based, mouse; conditions: R cells
# From the text: as §1, with “After 20 minutes on ice, the cells were pelleted by centrifugation and the supernatants were used as a cell lysate. Cell lysates or immunoprecipitated cell lysates were separated by PAGE (NuPAGE® gels; Invitrogen, Carlsbad, Calif.), followed by electroblotting onto a polyvinylidenedifluoride membrane (PVDF).” left out
# For these experiments, EV and R cells were starved in DMEM without serum for 48 hours. […] Signaling events downstream of ERK activation were then monitored with a multi-copy serum-response element (SRE)-luciferase construct introduced into EV, R, and RL (FIG. 6B). […]
# [6] = system: serum-response element (SRE); assay: SRE-luciferase assay; assay type: cell-based, mouse
# Protocol: After transient transfection of the plasmids, cells were incubated for 20 hours in 10% FCS and luciferase activity in the cell lysates was determined using a luminometer normalized by sea-pansy luciferase activity under the control of the thymidine kinase promoter. The Dual-Luciferase Reporter Assay System was purchased from Promega (Madison, Wis.) (Hanai et al., J. Biol. Chem. 277:16464-16469, 2002).
# For these experiments, EV and R cells were starved in DMEM without serum for 48 hours. During this time, half of the R cells were incubated with 50 μg/ml of lipocalin 2 protein with iron-loaded siderophore (R+Lipo:Sid:Fe), after which all cells were incubated with 10% FCS containing DMEM for 20 minutes and then harvested for western blotting with phosphospecific antibodies. Signaling events downstream of ERK activation were then monitored with a multi-copy serum-response element (SRE)-luciferase construct introduced into EV, R, and RL (FIG. 6B). For these experiments, an SRE-luciferase assay was performed on 4T1 clones after the 48 hour incubation in serum free DMEM. […] Just like R cells treated with exogenous protein (FIG. 6A), R cells infection with recombinant adenovirus carrying lipocalin 2, but not GFP, reduced SRE-luciferase activity, MEK, and ERK1/2 phosphorylation, without altering ras expression.
# To localize the effect of lipocalin on ras-MAPK signaling, we utilized an adenovirus and expression plasmid encoding a constitutively active MEK (MEK-DD) (Murakami et al., Cell Growth Differ 10:333-342, 1999). MEK-DD adenoviral infection of EV cells led to increased SRE-luciferase activity (increased MAPK activity). […] RL cells in a 6-well plate were infected with an adenovirus carrying the MEK dominant active form (MEK-DD) and a Lac-Z adenovirus at the indicated multiplicities (MOI) in 2% serum including DMEM medium for 48 hours. Cells were then trypsinized, respread on 6-well plate at 5-10% confluency, and incubated with 10% serum including DMEM medium. Cell lysates were collected for western blotting 48 hours after the final plating (FIG. 6D). […]
molecule,measurement,setting,value
"CC(=O)N(O)CCCCCNC(=O)CCC(=O)N(O)CCCCCNC(=O)CCC(=O)N(O)CCCCCN [DFO, Deferoxamine mesylate]",E-cadherin expression in RL cells,"[1]; 2-5 μM, 48 hours",suppressed E-cadherin expression
same,morphology of RL cells,"[1]; 2-5 μM, 48 hours",changed the morphology of RL cells to a mesenchymal phenotype
O=c1cc(N2CCOCC2)oc2c(-c3ccccc3)cccc12 [LY294002],"maximum inhibition of VEGF production, each inhibitor alone",[2],approximately 50%
CC(C)C[C@@H](C=O)NC(=O)[C@H](CC(C)C)NC(=O)[C@H](CC(C)C)NC(=O)OCc1ccccc1 [MG132] (Cbz-Leu-Leu-Leu-aldehyde),E-cadherin protein in EV cells,[1]; 0.5 nM for 2 days,increased E-cadherin protein
same,E-cadherin protein in R cells,[1]; 0.5 nM for 2 days,increased E-cadherin protein
same,E-cadherin protein in RL cells,[1]; 0.5 nM for 2 days,only slightly increased E-cadherin
same,phenotype of R cells,[1]; 0.5 nM for 48 hours,reverted R cells to an epithelial phenotype
N#CC(=C(/N)Sc1ccccc1N)/C(C#N)=C(\N)Sc1ccccc1N [U0126],effect on ras-induced EMT,[1],reversed ras-induced EMT
same,E-cadherin phosphorylation,[3],markedly downregulated
same,"maximum inhibition of VEGF production, each inhibitor alone",[2],approximately 50%
O=S(=O)([O-])[O-].O=S(=O)([O-])[O-].[Fe+3].[NH4+] [ferric ammonium sulfate],phenotype of R cells after adding iron,[1]; 50 μM,did not change their phenotype
[Ga] [gallium],induction of E-cadherin in mesenchyme when iron is substituted,[4],greatly diminished
B1,total ras expression,[5]; 50 μg/ml for 48 hours,unchanged
same,"ras induced phosphorylation of raf, MEK, and ERK1/2","[5]; 50 μg/ml for 48 hours serum free, then 10% FCS 20 minutes",largely abrogated
same,rank order of effect on R cell epithelial morphology and E-cadherin expression,[1],Lipo:Sid:Fe>Lipo:Sid>Lipo
same,SRE-luciferase activity induced by CA-H-ras,[6]; EV cells transfected with H-ras V12,downregulated SRE-luciferase activity
same,inhibition of MEK-DD induced SRE-luciferase activity,[6]; EV cells transfected with MEK-DD,unable to inhibit this effect
B2,rank order of effect on R cell epithelial morphology and E-cadherin expression,[1],Lipo:Sid:Fe>Lipo:Sid>Lipo
B3,rank order of effect on R cell epithelial morphology and E-cadherin expression,[1],Lipo:Sid:Fe>Lipo:Sid>Lipo
